In this assay the test system is circulating lymphocytes. Description: Lymphopenia assay: circulating lymphocytes after oral gavage. The format is in vivo. Conditions: C57bl/6 male mice, oral gavage 0.5 and 5 mg/kg in 30% HPCD, blood 5 and 24 hours after administration; for ED50: Mus musculus, Lymphocyte, po. Here is the method:
Measurement of circulating lymphocytes: Compounds were dissolved in 30% HPCD. Mice (C57bl/6 male, 6-10 week-old) were administered 0.5 and 5 mg/kg of a compound via oral gavage. 30% HPCD was included as a negative control.
Blood was collected from the retro-orbital sinus 5 and 24 hours after drug administration under short isoflurane anesthesia. Whole blood samples were subjected to hematology analysis. Peripheral lymphocyte counts were determined using an automated analyzer (HEMAVET™ 3700). Three mice were used to assess the lymphocyte depletion activity of each compound screened.
Compounds of formula (I) induced full lymphopenia at times as short as 3 hours or less to as long as 48 hours or more; for example, 4 to 36 hours, or 5 to 24 hours. In some cases, a compound of formula induced full lymphopenia at 5 hours and partial lymphopenia at 24 hours. The dosage required to induce lymphopenia can be in the range of, e.g., 0.001 mg/kg to 100 mg/kg; or 0.01 mg/kg to 10 mg/kg. The dosage can be 10 mg/kg or less, such as 5 mg/kg or less, 1 mg/kg or less, or 0.1 mg/kg or less

Where only a bound is given, the exact number is not on record here.

The source of these data is patent US8269043B2, “Bicyclic aryl sphingosine 1-phosphate analogs” (Biogen Idec MA Inc., priority 2008, dated 2012).

Consider `CC(C)(C)[C@H]1CC[C@H](Oc2ccc3cc([C@@](C)(N)CO)ccc3c2C2CC2)CC1` [Example 215, (R)-2-amino-2-(6-(trans-4-tert-butylcyclohexyloxy)-5-cyclopropylnaphthalen-2-yl)propan-1-ol], for which the 50% effective dose (ED50) (as a rule, the dose at which the effect has come halfway, by size or by number of responders) was less than 0.5 mg/kg.
As for `Cc1c(O[C@H]2CC[C@H](C(C)(C)C)CC2)ccc2cc([C@@](C)(N)CO)ccc12` [Example 217, (R)-2-amino-2-(6-(trans-4-tert-butylcyclohexyloxy)-5-methylnaphthalen-2-yl)propan-1-ol], the ED50 is less than 0.5 mg/kg.
On the same count and under the same terms, in the case of `C=Cc1c(O[C@H]2CC[C@H](C(C)(C)C)CC2)ccc2cc([C@@](C)(N)CO)ccc12` [Example 219, (R)-2-amino-2-(6-(trans-4-tert-butylcyclohexyloxy)-5-vinylnaphthalen-2-yl)propan-1-ol] it was less than 0.5 mg/kg.
Still for that read-out and setting: in the case of `CC(C)(C)[C@H]1CC[C@H](Oc2ccc3cc([C@@](C)(N)CO)ccc3c2-c2ccc(OC(F)(F)F)cc2)CC1` [Example 221, (R)-2-amino-2-(6-(trans-4-tert-butylcyclohexyloxy)-5-(4-(trifluoromethoxy)phenyl)naphthalen-2-yl)propan-1-ol] it was more than 5 mg/kg.
Still for that read-out and setting: with `CC(C)(C)[C@H]1CC[C@H](Oc2ccc3cc([C@@](C)(N)CO)ccc3c2-c2ccc(S(C)(=O)=O)cc2)CC1` [Example 223, (R)-2-amino-2-(6-(trans-4-tert-butylcyclohexyloxy)-5-(4-(methylsulfonyl)phenyl)naphthalen-2-yl)propan-1-ol] the figure was more than 5 mg/kg.
As for `CC(C)(C)[C@H]1CC[C@H](Oc2ccc3cc([C@@](C)(N)CO)ccc3c2-c2cncnc2)CC1` [Example 225, (R)-2-amino-2-(6-(trans-4-tert-butylcyclohexyloxy)-5-(pyrimidin-5-yl)naphthalen-2-yl)propan-1-ol], the ED50 is more than 5 mg/kg.
Same read-out and setting: in the case of `CCOc1ccc(-c2c(O[C@H]3CC[C@H](C(C)(C)C)CC3)ccc3cc([C@@](C)(N)CO)ccc23)cc1` [Example 227, (R)-2-amino-2-(6-(trans-4-tert-butylcyclohexyloxy)-5-(4-ethoxyphenyl)naphthalen-2-yl)propan-1-ol] it was 0.5 to 5 mg/kg.
Still for that read-out and setting: in the case of `CC(C)(C)[C@H]1CC[C@H](Oc2ccc3cc([C@@](C)(N)CO)ccc3c2-c2ccccc2)CC1` [Example 229, (R)-2-amino-2-(6-(trans-4-tert-butylcyclohexyloxy)-5-phenylnaphthalen-2-yl)propan-1-ol] it was more than 5 mg/kg; in that of `CC(C)(C)[C@H]1CC[C@H](Oc2ccc3cc([C@@](C)(N)CO)ccc3c2-c2cccc(Cl)c2)CC1` [Example 231, (R)-2-amino-2-(6-(trans-4-tert-butylcyclohexyloxy)-5-(3-chlorophenyl)naphthalen-2-yl)propan-1-ol], more than 5 mg/kg.
Same read-out and setting: with `CC(C)(C)[C@H]1CC[C@H](Oc2ccc3cc([C@@](C)(N)CO)ccc3c2-c2ccc(Cl)cc2)CC1` [Example 233, (R)-2-amino-2-(6-(trans-4-tert-butylcyclohexyloxy)-5-(4-chlorophenyl)naphthalen-2-yl)propan-1-ol] the figure was more than 5 mg/kg.
The compound `CC(C)(C)[C@H]1CC[C@H](Oc2ccc3cc([C@@](C)(N)CO)ccc3c2Cl)CC1` [Example 236, (R)-2-amino-2-(6-(trans-4-tert-butylcyclohexyloxy)-5-chloronaphthalen-2-yl)propan-1-ol] came in with an ED50 of less than 0.5 mg/kg.
Same read-out and setting: with `CC(C)(C)[C@H]1CC[C@H](Oc2ccc3cc([C@@](C)(N)CO)ccc3c2Br)CC1` [Example 237, (R)-2-amino-2-(5-bromo-6-(trans-4-tert-butylcyclohexyloxy)naphthalen-2-yl)propan-1-ol] the figure was less than 0.5 mg/kg; with `CC(C)(C)[C@H]1CC[C@H](Oc2ccc3cc([C@]4(C)COC(=O)N4)ccc3c2)CC1` [Example 238, (R)-4-(6-(trans-4-tert-butylcyclohexyloxy)naphthalen-2-yl)-4-methyloxazolidin-2-one], less than 0.5 mg/kg.
Same read-out and setting: in the case of `CC(C)(C)[C@H]1CC[C@H](Oc2c(Cl)c(Cl)c3cc([C@@](C)(N)CO)ccc3c2Cl)CC1` [Example 240, (R)-2-amino-2-(6-(trans-4-tert-butylcyclohexyloxy)-5,7,8-trichloronaphthalen-2-yl)propan-1-ol] it was more than 5 mg/kg; in that of `CC(C)(C)[C@H]1CC[C@H](Oc2ccc3cc([C@@](C)(N)CO)ccc3c2F)CC1` [Example 242, (R)-2-amino-2-(6-(trans-4-tert-butylcyclohexyloxy)-5-fluoronaphthalen-2-yl)propan-1-ol], less than 0.5 mg/kg; in that of `NC(CO)(CO)c1ccc2cc(Oc3ccc(Oc4ccccc4)cc3)ccc2c1` [Example 245, 2-amino-2-(6-(4-phenoxyphenoxy)naphthalen-2-yl)propane-1,3-diol], less than 0.5 mg/kg.
With `NC(CO)(CO)c1ccc2cc(Oc3ccc(OCc4ccccc4)cc3)ccc2c1` [Example 248, 2-amino-2-(6-(4-(benzyloxy)phenoxy)naphthalen-2-yl)propane-1,3-diol], the ED50 was less than 0.5 mg/kg.
Same read-out and setting: in the case of `CCCCCOc1ccc(Oc2ccc3cc(C(N)(CO)CO)ccc3c2)cc1` [Example 251, 2-amino-2-(6-(4-(pentyloxy)phenoxy)naphthalen-2-yl)propane-1,3-diol] it was less than 0.5 mg/kg; in that of `C[C@](N)(CO)c1ccc2cc(O[C@H]3CC[C@@H](C(F)(F)F)CC3)ccc2c1` [Example 259, (R)-2-Amino-2-[6-(cis-4-trifluoromethyl-cyclohexyloxy)-naphthalen-2-yl]-propan-1-ol], 0.5 to 5 mg/kg.
For `C[C@](N)(CO)c1ccc2cc(O[C@H]3CC[C@H](C(F)(F)F)CC3)ccc2c1` [Example 260, (R)-2-Amino-2-[6-(trans-4-trifluoromethyl-cyclohexyloxy)-naphthalen-2-yl]-propan-1-ol], the ED50 is 0.5 to 5 mg/kg.
The same measure, in the same setting: in the case of `C[C@](N)(CO)c1ccc2c(C(F)(F)F)c(O[C@H]3CC[C@H](C(F)(F)F)CC3)ccc2c1` [Example 266, (R)-2-Amino-2-[5-trifluoromethyl-6-(trans-4-trifluoromethylcyclohexyloxy)-naphthalen-2-yl]propan-1-ol] it was less than 0.5 mg/kg; in that of `CC(F)(F)[C@H]1CC[C@H](Oc2ccc3cc([C@@](C)(N)CO)ccc3c2)CC1` [Example 299, (R)-2-amino-2-(6-(trans-4-(1,1-difluoroethyl)cyclohexyloxy)naphthalen-2-yl)propan-1-ol], less than 0.5 mg/kg.
With `CCC(F)(F)[C@H]1CC[C@H](Oc2ccc3cc([C@@](C)(N)CO)ccc3c2)CC1` [Example 305, (R)-2-amino-2-(6-(trans-4-(1,1-difluoropropyl)cyclohexyloxy)naphthalen-2-yl)propan-1-ol], the 50% effective dose (ED50) was less than 0.5 mg/kg.
Regarding `CCCC(F)(F)[C@H]1CC[C@H](Oc2ccc3cc([C@@](C)(N)CO)ccc3c2)CC1` [Example 311, (R)-2-amino-2-(6-(trans-4-(1,1-difluorobutyl)cyclohexyloxy)naphthalen-2-yl)propan-1-ol], the ED50 is less than 0.5 mg/kg.
On the same count and under the same terms, with `CC(F)(F)[C@H]1CC[C@@H](Oc2ccc3cc([C@@](C)(N)CO)ccc3c2)CC1` [Example 319, (R)-2-amino-2-(6-(cis-4-(1,1-difluoroethyl)cyclohexyloxy)naphthalen-2-yl)propan-1-ol] the figure was more than 5 mg/kg; with `CCC(F)(F)[C@H]1CC[C@@H](Oc2ccc3cc([C@@](C)(N)CO)ccc3c2)CC1` [Example 325, (R)-2-amino-2-(6-(cis-4-(1,1-difluoropropyl)cyclohexyloxy)naphthalen-2-yl)propan-1-ol], more than 5 mg/kg; with `CCCC(F)(F)[C@H]1CC[C@@H](Oc2ccc3cc([C@@](C)(N)CO)ccc3c2)CC1` [Example 331, (R)-2-amino-2-(6-(cis-4-(1,1-difluorobutyl)cyclohexyloxy)naphthalen-2-yl)propan-1-ol], more than 5 mg/kg.
On the same count and under the same terms, with `CC(F)(F)[C@H]1CC[C@H](Oc2ccc3cc([C@@](C)(N)CO)ccc3c2C(F)(F)F)CC1` [Example 334, (R)-2-amino-2-(6-(trans-4-(1,1-difluoroethyl)cyclohexyloxy)-5-(trifluoromethyl)naphthalen-2-yl)propan-1-ol] the figure was less than 0.5 mg/kg; with `CCC(F)(F)[C@H]1CC[C@H](Oc2ccc3cc([C@@](C)(N)CO)ccc3c2C(F)(F)F)CC1` [Example 337, (R)-2-amino-2-(6-(trans-4-(1,1-difluoropropyl)cyclohexyloxy)-5-(trifluoromethyl)naphthalen-2-yl)propan-1-ol], less than 0.5 mg/kg.
Take “(R)-2-Amino-2-[6-(cis-4-pentyl-cyclohexyloxy)-naphthalen-2-yl]-propan-1-ol and (R)-2-Amino-2-[6-(trans-4-pentyl-cyclohexyloxy)-naphthalen-2-yl]-propan-1-ol [Example 272]”: the “Lymphopenia (ED50 mg/kg)” value is given as less than 0.5 mg/kg.
For the compound “(R)-2-amino-2-(6-(3-(benzyloxy)phenylthio)naphthalen-2-yl)propan-1-ol [Example 155]”, the “Lymphopenia (ED50 mg/kg)” value is reported as less than 0.5 mg/kg.
Same read-out and setting: in the case of “(R)-2-amino-2-(6-((1R,2R,4S)-bicyclo[2.2.1]heptan-2-yloxy)naphthalen-2-yl)propan-1-ol [Example 105]” it was more than 5 mg/kg.
